The source of these data is article PMC5831858, “Pharmacological characterisation of CR6086, a potent prostaglandin E2 receptor 4 antagonist, as a new potential disease-modifying anti-rheumatic drug” (Arthritis Research & Therapy, 2018).

The subject of test [1] is TNF-α. The experiment in a line: TNF-α receptor binding. The settings on record: [^125I]TNF-α, U-937 cells.
Test [2] addresses 5-HT2C (Homo sapiens, UniProt P28335). In words: Serotonin receptor 5-HT2C binding. Conditions: [^3H]mesulergine, Human recombinant HEK-293 cells, read-out: CR6086 Activity at 10µM.
The target of test [3] is Dopamine transporter (Homo sapiens, UniProt Q01959). The experiment in a line: Dopamine transporter binding. Conditions: [^3H]BTCP, Human recombinant CHO cells, read-out: CR6086 Activity at 10µM.
The target of test [4] is T1, mouse EP4 receptor (Mus musculus, UniProt P32240).
T1 construct: the cDNA encoding the full-length rat (NM_032076) or mouse (NM_001136079) EP4 receptors; host or cells: HEK293 (transient)
The experiment in a line: EP4 radioligand binding assay ([^3H]PGE2), mouse receptor. Conditions: [^3H]PGE2 displacement; transiently transfected HEK293 membranes; read-out: Ki CR6086. The source says: For rodent EP4 receptor cloning, the cDNA encoding the full-length rat (NM_032076) or mouse (NM_001136079) EP4 receptors cloned in pCMV6 entry was provided by OriGene Inc. (TrueORF Gold, catalogue numbers RN206839 and MC216813; OriGene, Rockville, MD, USA). Expression of rat and mouse receptors was obtained by transfecting HEK293 cells with the respective vector using Lipofectamine 3000 reagent (Thermo Fisher Scientific) according to the manufacturer’s instructions.
Membranes expressing the human EP4 receptor were prepared from stably transfected HEK293 cell line. […] Protein content of the cell membrane suspension was determined using bovine serum albumin (BSA) as a standard.
Experimental procedures were performed according to the method of Abramovitz et al.. […] The residual [^3H]PGE2 binding was determined using a solid scintillation counter (TopCount; PerkinElmer) after at least 1 h of stabilisation. In saturation binding studies, isotherm-binding curves generated with six to eight different concentrations of [^3H]PGE2 (from 0.5 to 25 nM) were evaluated. […]
Specific binding to the receptors was defined as the difference between total binding and non-specific binding, as determined in the presence of an excess of unlabelled ligand. […] Competition curves were analysed to assess the half-maximal inhibitory concentration (IC50). […] The results of replicated curves were expressed as mean ± SEM.

The target of test [5] is NOP (ORL1) (Homo sapiens, UniProt P41146). The experiment in a line: Opioid receptor NOP (ORL1) binding. Conditions: [^3H]nociceptin, Human recombinant HEK-293 cells, read-out: CR6086 Activity at 10µM.
Test [6] concerns the target 5-HT transporter (Homo sapiens, UniProt P31645). The experiment in a line: 5-HT transporter binding. The settings on record: [^3H]imipramine, Human recombinant CHO cells, read-out: CR6086 Activity at 10µM.
Test [7] has as its target CGRP (Homo sapiens, UniProt O60894+Q16602). The experiment in a line: CGRP receptor binding. The settings on record: [^125I]hCGRPα, Human recombinant CHO cells, read-out: CR6086 Activity at 10µM.
The test system of test [8] is PCP. In words: PCP receptor binding. Conditions: [^3H]TCP, Rat cerebral cortex.
In test [9] the target is D4,4 (Homo sapiens, UniProt P21917). In words: Dopamine receptor D4,4 binding. The settings on record: [^3H]methyl-spiperone, Human recombinant CHO cells, read-out: CR6086 Activity at 10µM.
Test [10] addresses κ (KOP) (Homo sapiens, UniProt P41145). In words: Opioid receptor κ (KOP) binding. Conditions: [^3H]U 69593, Human recombinant CHO cells, read-out: CR6086 Activity at 10µM.
Test [11] addresses FP (Homo sapiens, UniProt P43088). In words: Eicosanoid receptor FP binding. Conditions: [^3H]PGF2α, HEK-293 cells, read-out: CR6086 Activity at 10µM.
The target of test [12] is V1a (Homo sapiens, UniProt P37288). In words: V1a receptor binding. Conditions: [^3H]AVP, Human recombinant CHO cells, read-out: CR6086 Activity at 10µM.
Test [13] addresses B2 (Homo sapiens, UniProt P30411). In words: B2 receptor binding. Conditions: [^3H]bradykinin, Human recombinant CHO cells, read-out: CR6086 Activity at 10µM.
In test [14] the target is D1 (Homo sapiens, UniProt P21728). In words: Dopamine receptor D1 binding. Conditions: [^3H]SCH 23390, Human recombinant CHO cells, read-out: CR6086 Activity at 10µM.

SMILES strings stand for the structures.

T1 sequence (P32240 whole entry): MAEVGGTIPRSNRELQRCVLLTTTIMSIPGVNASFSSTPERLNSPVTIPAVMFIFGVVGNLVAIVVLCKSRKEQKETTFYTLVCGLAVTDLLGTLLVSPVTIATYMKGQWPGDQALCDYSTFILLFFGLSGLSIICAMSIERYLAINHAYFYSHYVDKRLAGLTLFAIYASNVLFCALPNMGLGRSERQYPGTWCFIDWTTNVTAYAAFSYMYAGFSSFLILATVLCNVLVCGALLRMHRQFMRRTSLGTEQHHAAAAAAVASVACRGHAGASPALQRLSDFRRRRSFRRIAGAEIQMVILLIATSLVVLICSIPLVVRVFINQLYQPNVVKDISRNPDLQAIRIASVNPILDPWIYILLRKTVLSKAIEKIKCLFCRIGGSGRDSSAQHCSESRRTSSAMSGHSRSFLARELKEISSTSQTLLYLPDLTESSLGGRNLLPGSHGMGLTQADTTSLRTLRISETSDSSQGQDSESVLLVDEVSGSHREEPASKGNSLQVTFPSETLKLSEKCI
Sequence of FP (P43088 whole entry): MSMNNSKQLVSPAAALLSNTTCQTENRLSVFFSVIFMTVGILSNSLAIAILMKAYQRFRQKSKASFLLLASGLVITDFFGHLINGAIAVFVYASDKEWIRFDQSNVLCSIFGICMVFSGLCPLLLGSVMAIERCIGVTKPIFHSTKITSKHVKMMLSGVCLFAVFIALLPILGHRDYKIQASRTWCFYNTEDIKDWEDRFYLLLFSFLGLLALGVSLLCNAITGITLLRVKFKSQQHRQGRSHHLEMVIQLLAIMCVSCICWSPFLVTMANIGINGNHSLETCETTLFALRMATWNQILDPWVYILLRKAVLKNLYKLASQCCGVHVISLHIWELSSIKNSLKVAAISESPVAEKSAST
Sequence of Dopamine transporter (Q01959 whole entry): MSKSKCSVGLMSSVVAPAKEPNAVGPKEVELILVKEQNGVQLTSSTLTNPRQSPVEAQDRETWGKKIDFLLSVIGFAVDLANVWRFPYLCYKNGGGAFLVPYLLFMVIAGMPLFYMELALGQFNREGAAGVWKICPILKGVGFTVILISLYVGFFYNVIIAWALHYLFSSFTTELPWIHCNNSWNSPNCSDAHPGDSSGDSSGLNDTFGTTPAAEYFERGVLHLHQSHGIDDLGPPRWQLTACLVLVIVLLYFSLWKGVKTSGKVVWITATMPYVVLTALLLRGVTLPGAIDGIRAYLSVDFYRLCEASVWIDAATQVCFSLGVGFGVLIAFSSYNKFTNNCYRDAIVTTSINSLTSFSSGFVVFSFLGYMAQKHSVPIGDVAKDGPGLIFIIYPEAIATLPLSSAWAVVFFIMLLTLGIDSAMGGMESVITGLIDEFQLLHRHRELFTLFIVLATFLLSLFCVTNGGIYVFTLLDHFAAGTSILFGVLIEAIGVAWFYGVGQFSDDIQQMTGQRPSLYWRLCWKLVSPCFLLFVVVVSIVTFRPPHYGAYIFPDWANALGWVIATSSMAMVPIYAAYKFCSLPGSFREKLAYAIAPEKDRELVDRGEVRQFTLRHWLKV
Sequence of 5-HT2C (P28335 33-458): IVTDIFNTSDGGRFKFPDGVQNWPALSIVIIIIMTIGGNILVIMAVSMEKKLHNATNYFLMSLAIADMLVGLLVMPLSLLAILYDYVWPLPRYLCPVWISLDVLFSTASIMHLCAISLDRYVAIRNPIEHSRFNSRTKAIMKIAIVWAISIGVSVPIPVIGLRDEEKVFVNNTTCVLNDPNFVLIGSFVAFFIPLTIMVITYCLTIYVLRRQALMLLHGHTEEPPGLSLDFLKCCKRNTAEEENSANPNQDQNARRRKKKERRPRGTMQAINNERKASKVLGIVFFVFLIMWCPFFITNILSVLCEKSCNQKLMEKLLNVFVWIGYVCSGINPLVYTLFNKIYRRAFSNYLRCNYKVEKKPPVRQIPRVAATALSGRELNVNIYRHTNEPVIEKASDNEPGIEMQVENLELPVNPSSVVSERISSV
Sequence of NOP (ORL1) (P41146 whole entry): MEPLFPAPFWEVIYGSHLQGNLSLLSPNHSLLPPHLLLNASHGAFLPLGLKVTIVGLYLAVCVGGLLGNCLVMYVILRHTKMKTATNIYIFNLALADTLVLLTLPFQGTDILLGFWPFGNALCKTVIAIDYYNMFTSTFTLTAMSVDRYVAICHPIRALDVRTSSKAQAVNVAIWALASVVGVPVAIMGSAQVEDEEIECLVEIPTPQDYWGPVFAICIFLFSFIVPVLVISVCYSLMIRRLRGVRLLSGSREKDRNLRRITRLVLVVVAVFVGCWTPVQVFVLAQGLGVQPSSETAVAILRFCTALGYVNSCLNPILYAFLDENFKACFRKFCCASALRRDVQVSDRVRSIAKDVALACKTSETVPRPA
Sequence of V1a (P37288 whole entry): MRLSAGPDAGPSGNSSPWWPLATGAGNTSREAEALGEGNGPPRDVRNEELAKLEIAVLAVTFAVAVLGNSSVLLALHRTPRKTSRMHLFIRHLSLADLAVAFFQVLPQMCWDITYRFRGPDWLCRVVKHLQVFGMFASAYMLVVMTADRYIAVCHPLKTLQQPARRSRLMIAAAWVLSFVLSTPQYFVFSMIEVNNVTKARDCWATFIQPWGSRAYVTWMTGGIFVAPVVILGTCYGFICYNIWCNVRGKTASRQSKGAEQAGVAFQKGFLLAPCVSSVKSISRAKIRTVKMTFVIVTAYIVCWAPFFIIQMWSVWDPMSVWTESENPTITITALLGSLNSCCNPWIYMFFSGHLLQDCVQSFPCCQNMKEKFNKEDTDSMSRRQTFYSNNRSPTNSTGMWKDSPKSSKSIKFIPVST
Sequence of B2 (P30411 whole entry): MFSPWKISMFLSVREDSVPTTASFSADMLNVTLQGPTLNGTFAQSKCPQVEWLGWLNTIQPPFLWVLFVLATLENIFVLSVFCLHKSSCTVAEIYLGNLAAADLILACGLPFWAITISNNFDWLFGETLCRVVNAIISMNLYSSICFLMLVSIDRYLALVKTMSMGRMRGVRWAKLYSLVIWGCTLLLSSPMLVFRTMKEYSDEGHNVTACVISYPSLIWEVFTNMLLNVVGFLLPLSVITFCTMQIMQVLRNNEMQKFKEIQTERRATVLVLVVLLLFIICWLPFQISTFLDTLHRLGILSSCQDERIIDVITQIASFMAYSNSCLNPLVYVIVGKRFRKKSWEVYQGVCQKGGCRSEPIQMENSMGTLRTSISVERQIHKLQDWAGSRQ
Sequence of κ (KOP) (P41145 whole entry): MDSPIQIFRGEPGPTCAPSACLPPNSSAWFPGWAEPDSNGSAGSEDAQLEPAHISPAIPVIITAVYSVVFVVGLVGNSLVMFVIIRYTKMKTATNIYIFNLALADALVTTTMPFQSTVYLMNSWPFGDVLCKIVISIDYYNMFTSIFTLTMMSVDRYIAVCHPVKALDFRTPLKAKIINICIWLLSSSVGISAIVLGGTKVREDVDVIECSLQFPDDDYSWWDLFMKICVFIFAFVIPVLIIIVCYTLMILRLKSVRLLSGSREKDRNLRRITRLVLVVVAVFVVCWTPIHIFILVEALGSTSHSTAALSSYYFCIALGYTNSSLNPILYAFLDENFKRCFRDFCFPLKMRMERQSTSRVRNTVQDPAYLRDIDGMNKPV
Sequence of CGRP (Q16602 23-461): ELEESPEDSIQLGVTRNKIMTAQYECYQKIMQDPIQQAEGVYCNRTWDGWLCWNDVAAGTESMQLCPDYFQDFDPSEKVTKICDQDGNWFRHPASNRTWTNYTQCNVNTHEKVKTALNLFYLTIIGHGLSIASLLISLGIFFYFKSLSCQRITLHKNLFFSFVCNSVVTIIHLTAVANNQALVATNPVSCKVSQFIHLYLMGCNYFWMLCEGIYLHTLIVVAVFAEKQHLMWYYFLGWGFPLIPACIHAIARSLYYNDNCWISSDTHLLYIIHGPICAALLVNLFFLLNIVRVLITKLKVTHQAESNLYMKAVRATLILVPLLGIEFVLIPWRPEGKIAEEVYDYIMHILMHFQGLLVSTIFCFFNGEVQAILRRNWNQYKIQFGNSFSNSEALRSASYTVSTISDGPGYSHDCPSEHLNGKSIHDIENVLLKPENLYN
Sequence of CGRP (O60894 27-148): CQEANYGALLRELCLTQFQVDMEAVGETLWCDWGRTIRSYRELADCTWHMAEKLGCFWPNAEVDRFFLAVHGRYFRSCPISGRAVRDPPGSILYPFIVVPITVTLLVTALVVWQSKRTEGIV
Sequence of D4,4 (P21917 whole entry): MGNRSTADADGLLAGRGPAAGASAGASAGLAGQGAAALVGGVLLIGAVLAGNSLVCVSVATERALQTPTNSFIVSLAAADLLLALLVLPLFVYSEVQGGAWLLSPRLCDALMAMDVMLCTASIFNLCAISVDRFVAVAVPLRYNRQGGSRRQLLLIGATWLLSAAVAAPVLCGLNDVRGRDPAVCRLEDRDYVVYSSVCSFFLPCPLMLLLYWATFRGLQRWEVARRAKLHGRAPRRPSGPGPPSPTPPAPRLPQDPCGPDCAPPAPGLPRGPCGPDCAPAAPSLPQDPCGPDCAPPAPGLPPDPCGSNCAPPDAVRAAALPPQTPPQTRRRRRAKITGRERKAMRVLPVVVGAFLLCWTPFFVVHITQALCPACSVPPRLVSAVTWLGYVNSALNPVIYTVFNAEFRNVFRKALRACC
Sequence of D1 (P21728 whole entry): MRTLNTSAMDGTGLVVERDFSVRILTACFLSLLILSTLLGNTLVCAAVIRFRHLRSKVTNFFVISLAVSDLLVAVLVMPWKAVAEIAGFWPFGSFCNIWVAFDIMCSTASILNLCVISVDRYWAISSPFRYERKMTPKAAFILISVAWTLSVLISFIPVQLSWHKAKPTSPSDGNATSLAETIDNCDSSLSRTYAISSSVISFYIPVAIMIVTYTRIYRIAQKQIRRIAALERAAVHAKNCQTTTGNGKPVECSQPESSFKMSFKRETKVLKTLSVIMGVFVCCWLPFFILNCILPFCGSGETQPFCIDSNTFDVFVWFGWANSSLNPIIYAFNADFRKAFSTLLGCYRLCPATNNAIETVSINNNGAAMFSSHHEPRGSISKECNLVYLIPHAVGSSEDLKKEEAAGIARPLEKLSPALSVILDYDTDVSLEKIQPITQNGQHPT

For the molecule `O=C([O-])c1ccc(C2(NC(=O)[C@H]3CC4(CCN3Cc3ccc(C(F)(F)F)cc3)CC4)CC2)cc1.[Na+]` [CR6086, Sodium (R)-4-(1-(6-(4-(trifluoromethyl)benzyl)-6-azaspiro[2.5]octane-5-carboxamido)cyclopropyl)benzoate], the “CR6086 Activity at 10µM” value in [1] and in test [8] was “IN (IN = < 20% displacement or inhibition (all tables))” throughout. The inhibition at 10 µM in [2], in [3], in test [5], in [6], in test [7] and in test [9] was less than 20% each time. For the same molecule, the inhibition at 10 µM in test [10], in [11], in test [12], in [13] and in test [14] was less than 20% in each case. For the same molecule, in [4], the Ki turned out to be 75.9 ± 7.6 nM.

As usually defined, the Ki is a measure of affinity in units of concentration, obtained from inhibition or displacement.
